Experimental data published in patent publication US12304916B2, “Thienopyridinyl and thiazolopyridinyl compounds useful as IRAK4 inhibitors” (BRISTOL-MYERS SQUIBB COMPANY, priority 2019, dated 2025).

target: IRAK4 (Homo sapiens (Human), UniProt Q9NWZ3); experiment: IRAK4 Inhibition Assay; format: biochemical; settings: ATP 500 μM; IRAK4 0.6 nM; 60 min at room temperature
Description: The assays were performed in U-bottom 384-well plates. The final assay volume was 30 μL prepared from 15 μL additions of enzyme and substrates (fluoresceinated peptide and ATP) and test compounds in assay buffer (20 mM HEPES pH 7.2, 10 mM MgCl2, 0.015% Brij 35 and 4 mM DTT). The reaction was initiated by the combination of IRAK4 with substrates and test compounds. The reaction mixture was incubated at room temperature for 60 min. and terminated by adding 45 μL of 35 mM EDTA to each sample. The reaction mixture was analyzed on the Caliper LABCHIP® 3000 (Caliper, Hopkinton, MA) by electrophoretic separation of the fluorescent substrate and phosphorylated product. Inhibition data were calculated by comparison to no enzyme control reactions for 100% inhibition and vehicle-only reactions for 0% inhibition. The final concentrations of reagents in the assays are ATP, 500 μM; FL-IPTSPITTTYFFFKKK peptide 1.5 μM; IRAK4, 0.6 nM; and DMSO, 1.6%.

IRAK4, sequence (Q9NWZ3 whole entry, species assumed): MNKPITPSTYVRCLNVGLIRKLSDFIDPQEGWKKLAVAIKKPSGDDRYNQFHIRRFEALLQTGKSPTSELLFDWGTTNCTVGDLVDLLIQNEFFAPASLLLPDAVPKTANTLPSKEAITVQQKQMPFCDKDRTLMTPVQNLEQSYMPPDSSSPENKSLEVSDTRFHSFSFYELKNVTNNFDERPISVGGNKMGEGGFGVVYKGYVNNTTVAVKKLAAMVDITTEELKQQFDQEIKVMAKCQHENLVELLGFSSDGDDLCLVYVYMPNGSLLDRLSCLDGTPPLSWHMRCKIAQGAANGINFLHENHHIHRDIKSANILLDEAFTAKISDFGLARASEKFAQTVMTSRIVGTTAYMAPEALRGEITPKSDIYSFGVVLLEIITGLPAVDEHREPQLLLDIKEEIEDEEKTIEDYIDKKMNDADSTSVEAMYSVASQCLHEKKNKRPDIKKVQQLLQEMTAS

| IC50 [nM] | SMILES |
| --- | --- |
| 797 | CC(C)Nc1c(C(=O)NC[C@@H](F)C(C)(C)O)cnc2sc(Nc3ccc(S(C)(=O)=O)cc3)nc12 [Example 17, (R)-N-(2-fluoro-3-hydroxy-3-methylbutyl)-7-(isopropylamino)-2-((4-(methylsulfonyl)phenyl)amino)thiazolo[5,4-b]pyridine-6-carboxamide] |
| 323 | CC(C)Nc1c(C(=O)NCCC(F)(F)F)cnc2sc(-c3cccnc3)nc12 [Example 18, 7-(isopropylamino)-2-(pyridin-3-yl)-N-(3,3,3-trifluoropropyl) thiazolo[5,4-b]pyridine-6-carboxamide] |
| 72.6 | CC(C)Nc1c(C(=O)NCCC2CC2)cnc2sc(-c3cccnc3)nc12 [Example 19, N-(2-cyclopropylethyl)-7-(isopropylamino)-2-(pyridin-3-yl)thiazolo[5,4-b]pyridine-6-carboxamide] |
| 12.3 | CC(=O)O[C@H]1CC[C@H](NC(=O)c2cnc3sc(-c4cccnc4)nc3c2NC(C)C)CC1 [Example 20, (1r,4r)-4-(7-(isopropylamino)-2-(pyridin-3-yl)thiazolo[5,4-b]pyridine-6-carboxamido)cyclohexyl acetate] |
| 27.7 | CC(C)Nc1c(C(=O)NC[C@@H](F)C(C)(C)O)cnc2sc(-c3ccc4nccn4c3)cc12 [Example 26, (R)-N-(2-fluoro-3-hydroxy-3-methylbutyl)-2-(imidazo[1,2-a]pyridin-6-yl)-4-(isopropylamino)thieno[2,3-b]pyridine-5-carboxamide] |
| 75.6 | CC(C)Nc1c(C(=O)NC[C@@H](F)C(C)(C)O)cnc2sc(-c3c[nH]c4ncc(F)cc34)cc12 [Example 28, (R)-2-(5-fluoro-1H-pyrrolo[2,3-b]pyridin-3-yl)-N-(2-fluoro-3-hydroxy-3-methylbutyl)-4-(isopropylamino)thieno[2,3-b]pyridine-5-carboxamide] |
| 35.1 | CC(C)CCNC(=O)c1cnc2sc(-c3cccnc3)cc2c1NC(C)C [Example 31, N-isopentyl-4-(isopropylamino)-2-(pyridin-3-yl) thieno[2,3-b]pyridine-5-carboxamide] |
| 29 | CC(C)CCNC(=O)c1cnc2sc(-c3ccnnc3)cc2c1NC(C)C [Example 33, N-isopentyl-4-(isopropylamino)-2-(pyridazin-4-yl)thieno[2,3-b]pyridine-5-carboxamide] |
| 30 | COCCNC(=O)c1cnc2sc(-c3cncs3)cc2c1NC(C)C [Example 34, 4-(isopropylamino)-N-(2-methoxyethyl)-2-(thiazol-5-yl)thieno[2,3-b]pyridine-5-carboxamide] |
| 59.7 | Cc1cc(CNC(=O)c2cnc3sc(-c4cncs4)cc3c2NC(C)C)on1 [Example 35, 4-(isopropylamino)-N-((3-methylisoxazol-5-yl)methyl)-2-(thiazol-5-yl)thieno[2,3-b]pyridine-5-carboxamide] |
| 20.6 | CC(C)Nc1c(C(=O)N[C@H]2CC[C@H](O)CC2)cnc2sc(-c3cncs3)cc12 [Example 36, N-((1r,4r)-4-hydroxycyclohexyl)-4-(isopropylamino)-2-(thiazol-5-yl)thieno[2,3-b]pyridine-5-carboxamide] |
| 384 | CC(C)Nc1c(C(=O)NCCC2(CO)CC2)cnc2sc(-c3cncs3)cc12 [Example 37, N-(2-(1-(hydroxymethyl)cyclopropyl)ethyl)-4-(isopropylamino)-2-(thiazol-5-yl)thieno[2,3-b]pyridine-5-carboxamide] |
| 554 | CC(C)Nc1c(C(=O)NC(CCO)C2CC2)cnc2sc(-c3cncs3)cc12 (stereo not drawn) [Example 39, N-(1-cyclopropyl-3-hydroxypropyl)-4-(isopropylamino)-2-(thiazol-5-yl)thieno[2,3-b]pyridine-5-carboxamide] |
| 126 | CC(C)Nc1c(C(=O)N[C@H](C)CCO)cnc2sc(-c3cncs3)cc12 [Example 40, (R)-N-(4-hydroxybutan-2-yl)-4-(isopropylamino)-2-(thiazol-5-yl)thieno[2,3-b]pyridine-5-carboxamide] |
| 21.6 | CC(C)Nc1c(C(=O)NCc2cocn2)cnc2sc(-c3cncs3)cc12 [Example 41, 4-(isopropylamino)-N-(oxazol-4-ylmethyl)-2-(thiazol-5-yl) thieno[2,3-b]pyridine-5-carboxamide] |
| 3.7 | CC(=O)N[C@H]1CC[C@H](NC(=O)c2cnc3sc(-c4cncs4)cc3c2NC(C)C)CC1 [Example 45, N-((1r,4r)-4-acetamidocyclohexyl)-4-(isopropylamino)-2-(thiazol-5-yl)thieno[2,3-b]pyridine-5-carboxamide] |
| 272 | CC(C)Nc1c(C(=O)NCC(C)(C)CO)cnc2sc(-c3cncs3)cc12 [Example 46, N-(3-hydroxy-2,2-dimethylpropyl)-4-(isopropylamino)-2-(thiazol-5-yl)thieno[2,3-b]pyridine-5-carboxamide] |

Second part, the molecule before the results:

| SMILES | IC50 [nM] |
| --- | --- |
| CC(C)(O)[C@H](F)CNC(=O)c1cnc2sc(-c3ccccc3)nc2c1NC1CC1 [Example 1, (R)-7-(cyclopropylamino)-N-(2-fluoro-3-hydroxy-3-methylbutyl)-2-phenylthiazolo[5,4-b]pyridine-6-carboxamide] | 39.5 |
| CC(C)Nc1c(C(=O)NC[C@@H](F)C(C)(C)O)cnc2sc(-c3ccccc3)nc12 [Example 2, (R)-N-(2-fluoro-3-hydroxy-3-methylbutyl)-7-(isopropylamino)-2-phenylthiazolo[5,4-b]pyridine-6-carboxamide] | 15.5 |
| CC(C)(O)[C@H](F)CNC(=O)c1cnc2sc(-c3ccccc3)nc2c1NC1CCCC1 [Example 3, (R)-7-(cyclopentylamino)-N-(2-fluoro-3-hydroxy-3-methylbutyl)-2-phenylthiazolo[5,4-b]pyridine-6-carboxamide] | 34 |
| CC(C)(O)[C@H](F)CNC(=O)c1cnc2sc(-c3ccccc3)nc2c1NC1CCOCC1 [Example 4, (R)-N-(2-fluoro-3-hydroxy-3-methylbutyl)-2-phenyl-7-((tetrahydro-2H-pyran-4-yl)amino)thiazolo[5,4-b]pyridine-6-carboxamide] | 7.9 |
| CCNc1c(C(=O)NC[C@@H](F)C(C)(C)O)cnc2sc(-c3ccccc3)nc12 [Example 5, (R)-7-(ethylamino)-N-(2-fluoro-3-hydroxy-3-methylbutyl)-2-phenylthiazolo[5,4-b]pyridine-6-carboxamide] | 46.2 |
| C[C@H](CO)Nc1c(C(=O)NC[C@@H](F)C(C)(C)O)cnc2sc(-c3ccccc3)nc12 [Example 6, N-((R)-2-fluoro-3-hydroxy-3-methylbutyl)-7-(((R)-1-hydroxypropan-2-yl)amino)-2-phenylthiazolo[5,4-b]pyridine-6-carboxamide] | 39.8 |
| C[C@H](CO)Nc1c(C(=O)NCCC(C)(C)O)cnc2sc(-c3ccccc3)nc12 [Example 7, (R)-N-(3-hydroxy-3-methylbutyl)-7-((1-hydroxypropan-2-yl)amino)-2-phenylthiazolo[5,4-b]pyridine-6-carboxamide] | 172 |
| C[C@H](CO)Nc1c(C(=O)NCCCN2CCOCC2)cnc2sc(-c3ccccc3)nc12 [Example 8, (R)-7-((1-hydroxypropan-2-yl)amino)-N-(3-morpholinopropyl)-2-phenylthiazolo[5,4-b]pyridine-6-carboxamide] | 474 |
| C[C@H](CO)Nc1c(C(=O)NCCC#N)cnc2sc(-c3ccccc3)nc12 [Example 9, (R)-N-(2-cyanoethyl)-7-((1-hydroxypropan-2-yl)amino)-2-phenylthiazolo[5,4-b]pyridine-6-carboxamide] | 440 |
| C[C@H](CO)Nc1c(C(=O)NCCS(C)(=O)=O)cnc2sc(-c3ccccc3)nc12 [Example 10, (R)-7-((1-hydroxypropan-2-yl)amino)-N-(2-(methylsulfonyl)ethyl)-2-phenylthiazolo[5,4-b] pyridine-6-carboxamide] | 734 |
| CC(C)Nc1c(C(=O)NC[C@@H](F)C(C)(C)O)cnc2sc(-c3cccnc3)nc12 [Example 11, (R)-N-(2-fluoro-3-hydroxy-3-methylbutyl)-7-(isopropylamino)-2-(pyridin-3-yl)thiazolo[5,4-b]pyridine-6-carboxamide] | 12 |
| CC(C)(O)CCNC(=O)c1cnc2sc(-c3cccnc3)nc2c1NC1CCOCC1 [Example 12, N-(3-hydroxy-3-methylbutyl)-2-(pyridin-3-yl)-7-((tetrahydro-2H-pyran-4-yl)amino) thiazolo[5,4-b]pyridine-6-carboxamide] | 168 |
| O=C(NCCN1CCC(O)CC1)c1cnc2sc(-c3cccnc3)nc2c1NC1CCOCC1 [Example 13, N-(2-(4-hydroxypiperidin-1-yl)ethyl)-2-(pyridin-3-yl)-7-((tetrahydro-2H-pyran-4-yl)amino)thiazolo[5,4-b]pyridine-6-carboxamide] | 517 |
| CC(C)(O)[C@H](F)CNC(=O)c1cnc2sc(-c3cccnc3)nc2c1NC1CCOCC1 [Example 14, (R)-N-(2-fluoro-3-hydroxy-3-methylbutyl)-2-(pyridin-3-yl)-7-((tetrahydro-2H-pyran-4-yl)amino)thiazolo[5,4-b]pyridine-6-carboxamide] | 39.9 |
| CC(C)Nc1c(C(=O)NC[C@@H](F)C(C)(C)O)cnc2sc(Nc3ccc(-n4cccn4)cc3)nc12 [Example 15, (R)-2-((4-(1H-pyrazol-1-yl)phenyl)amino)-N-(2-fluoro-3-hydroxy-3-methylbutyl)-7-(isopropylamino)thiazolo[5,4-b]pyridine-6-carboxamide] | 2380 |
| CC(C)Nc1c(C(=O)NC[C@@H](F)C(C)(C)O)cnc2sc(Nc3cccnc3)nc12 [Example 16, (R)-N-(2-fluoro-3-hydroxy-3-methylbutyl)-7-(isopropylamino)-2-(pyridin-3-ylamino)thiazolo[5,4-b]pyridine-6-carboxamide] | 124 |
